In publication PMC8196580, “Identification of Kaurane-Type Diterpenes as Inhibitors of Leishmania Pteridine Reductase I” (Molecules, 2021):
Where two headings read alike, the source gives them in different places.

Columns and labels:
[1] = tested on: L. major; design: method as in ChEMBL; details: ref ChEMBL, cited from earlier work
[2] = tested on: L. major; assay: ChEMBL dataset of pIC50 values against L. major used for the RF model (Table S1); type: cell-based, Leishmania major; further: call rule not given here
Text: From the ChEMBL database (https://www.ebi.ac.uk/chembl/, accessed on 10 January 2021), we selected a diverse set of 1085 structures that were initially classified according to their predicted activity against L. major.
Excluding these structures minimized the differences in activity values resulting from errors and differences in experimental protocols. […] Standardizer software [JChem, version 16.11.28 (2016), calculation module developed by ChemAxon, https://www.chemaxon.com/, accessed on 20 January 2021] was used to canonize all simplified molecular-input line-entry system (SMILES) codes. After duplicate structures were removed, those with higher pIC50 values were eliminated, facilitating the generation of more restrictive models.

[3] = ChemBL structures with pIC50 values used for Random forest model construction, L. major
[4] = Active/Inactive class assigned to the ChEMBL pIC50 value for Random forest model construction, ref ChEMBL
[5] = ChemBL structures with pIC50 values used for Random forest model construction (Table S1)
[6] = Active/Inactive class assigned to ChemBL structures for Random forest model construction (Table S1)

Row | Structure (SMILES) | pIC50 Value [1, 3] | Outcome [2, 4] | pIC50 Value [1, 5] | Outcome [2, 6]
1 | C[C@]12CC[C@H](O)C[C@@H]1CC[C@@H]1[C@@H]2CC[C@@]2(C)[C@H]1CC[C@@H]2[C@@](C)(O)c1ccncc1 [CHEMBL1214241] | 4.92 | Inactive | – | –
2 | Cc1cccc2cc(/C=C/C(=O)c3sccc3Br)c(Cl)nc12 [CHEMBL1940869] | – | – | 5.63 | Active
3 | CCn1nc(C)cc1-c1nnc2sc(-c3ccc(C)cc3)nn12 [CHEMBL1256826] | 4.05 | Inactive | – | –
4 | CCCCc1ccc(-[n+]2c(C)cc3cc(OC)cc(OC)c3c2C)cc1.F[B-](F)(F)F [CHEMBL481023] | – | – | 5.57 | Active
5 | COc1ccc(-c2ccc(OC)c3ccccc23)c2c1C=NC(C)(C)C2 [CHEMBL1277742] | 4.43 | Inactive | – | –
6 | Cn1c([N+](=O)[O-])cnc1-c1nnc(N2CCN(C(=O)c3ccccc3)CC2)s1 [CHEMBL482463] | 4.98 | Inactive | – | –
7 | C[C@H](O)C#CC#CC#CC#CCCCCCCCC(=O)O [CHEMBL487989] | – | – | 5.31 | Active
8 | COc1ccc(/C=N/NC(N)=S)cc1OCc1cn(CC(=O)c2ccc(F)cc2)nn1 [CHEMBL4167146] | – | – | 5.32 | Active
9 | COc1c(C)cc2cccc(OC)c2c1O [CHEMBL2071227] | 4.35 | Inactive | – | –
10 | c1ccc(-c2nc3cnccn3c2-c2ccncc2)cc1 [CHEMBL3634356] | 4.70 | Inactive | – | –
11 | O=C(CCl)N1c2ccccc2COc2ccc(Cl)cc21 [CHEMBL3758404] | 5.14 | Active | – | –
12 | CCCCCCN(C)c1ccc(Nc2c3ccccc3nc3ccccc23)cc1OC [CHEMBL88682] | – | – | 6.22 | Active
13 | CNc1ccc(Nc2c3ccccc3nc3ccccc23)cc1OC(C)C [CHEMBL439951] | – | – | 5.89 | Active
14 | COc1ccc(/C=N/NC(=O)c2ccccc2OC)cc1Br [CHEMBL2382039] | 5.12 | Active | – | –
15 | COc1ccc(-[n+]2c(C)cc3cc(OC)cc(OC)c3c2C)cc1.F[B-](F)(F)F [CHEMBL481565] | 4.00 | Inactive | – | –
16 | COc1cc2c(c(OC)c1)C(C)=[N+](c1ccc(OC)c3c(OC)cc(C)cc13)[C@@H](C)C2.O=C([O-])C(F)(F)F [CHEMBL222358] | – | – | 5.31 | Active
17 | COc1cc(C)c(-c2ccc3cc(C)nc(C)c3c2O)c2cccc(O)c12 [CHEMBL222221] | 4.49 | Inactive | – | –
18 | O=C(CCl)N1c2ccccc2Sc2ccc(Cl)cc21 [CHEMBL290253] | 4.98 | Inactive | – | –
19 | Cc1ccc(C(=O)N2CCN(c3ccnc4cc(Cl)ccc34)CC2)cc1 [CHEMBL1256729] | 4.15 | Inactive | – | –
20 | Cc1ccc2cc(/C=C/C(=O)c3ccsc3)c(Cl)nc2c1 [CHEMBL1940850] | – | – | 5.55 | Active
21 | O=[N+]([O-])c1ccc(-c2nnc(NCc3cn(Cc4ccc(F)cc4)nn3)s2)o1 [CHEMBL1951524] | 4.67 | Inactive | – | –

Row | Structure (SMILES) | pIC50 Value [1, 3] | Outcome [2, 4] | pIC50 Value [1, 5] | Outcome [2, 6]
22 | Cl.O=[N+]([O-])c1ccc(-c2nnc(N3CCN(c4ccc(C5=NCCCN5)cc4)CC3)s2)o1 [CHEMBL1783211] | 3.70 | Inactive | – | –
23 | Cc1cccc2cc(C3CC(c4sccc4Br)=NN3)c(Cl)nc12 (centres unmarked) [CHEMBL2236132] | – | – | 5.64 | Active
24 | Cc1ccc2cc(/C=C/C(=O)c3sccc3Cl)c(Cl)nc2c1 [CHEMBL1940855] | – | – | 5.77 | Active
25 | CCCCCCNc1ccc(Nc2c3ccc(Cl)cc3nc3ccc(OC)cc23)cc1OC [CHEMBL89400] | – | – | 6.30 | Active
26 | C=CCOc1ccc(C(=O)/C=C/c2ccc(OC)cc2OC)cc1 [CHEMBL253672] | – | – | 5.40 | Active
27 | O=C(c1ccc(Cl)cc1)N1CCN(c2nnc(-c3ccc([N+](=O)[O-])o3)s2)CC1 [CHEMBL458528] | 4.58 | Inactive | – | –
28 | CCOC(=O)C1=C(C)NC(=S)NC1c1ccc(C)cc1 (centres unmarked) [CHEMBL3786732] | – | – | 5.66 | Active
29 | CC(C)=CC(=O)N[C@H]1CC[C@@]2(C)[C@@H](CC[C@@H]3[C@@H]2CC[C@]2(C)C([C@H](C)N(C)C)=CC[C@@H]32)[C@H]1O [CHEMBL496487] | 4.95 | Inactive | – | –
30 | CC(=O)Oc1ccc(-c2c(-c3ccccc3)nc3ccccn23)cc1 [CHEMBL2151860] | 4.80 | Inactive | – | –
31 | CC(=O)N1CCN(c2nnc(-c3ccc([N+](=O)[O-])s3)s2)CC1 [CHEMBL193546] | 4.31 | Inactive | – | –
32 | Ic1c(-c2ccccc2)nc2c(NCCN3CCOCC3)nccn12 [CHEMBL3634359] | 4.97 | Inactive | – | –
33 | CCCCOc1ccc(-c2nc3ccccc3[nH]2)cc1 [CHEMBL531335] | – | – | 5.61 | Active
34 | CC1(O)CCCC2(C)Cc3c(O)ccc(O)c3CC12 (centres unmarked) [CHEMBL255315] | 4.99 | Inactive | – | –
35 | CCN1CSC(=S)N(CC)C1 [CHEMBL1571763] | 4.42 | Inactive | – | –
36 | COc1cc(/C=N\NC(N)=S)ccc1OCc1cn(CC(=O)c2ccccc2)nn1 [CHEMBL4175538] | 5.27 | Active | – | –
37 | COc1cccc(/C=N/NC(=O)c2ccc(-c3nnc(-c4ccccc4OC)o3)cc2)c1 [CHEMBL4098544] | 4.10 | Inactive | – | –
38 | CCCN1CSC(=S)N(C(C)c2ccccc2)C1 (centres unmarked) [CHEMBL4290968] | 4.62 | Inactive | – | –
39 | Cc1ccc2cc(C3CC(c4ccc(I)s4)=NN3)c(Cl)nc2c1 (centres unmarked) [CHEMBL2235716] | – | – | 5.71 | Active
40 | O=[N+]([O-])c1ccc(-c2nnc(N3CCOCC3)s2)s1 [CHEMBL195645] | 4.97 | Inactive | – | –
41 | CC(C)(C)OC(=O)N1CCN(c2cc(-c3ccc(Oc4ccccc4)cc3)n[nH]2)CC1 [CHEMBL394241] | 4.89 | Inactive | – | –
42 | COc1ccccc1-c1nnc(-c2ccc(C(=O)N/N=C/c3cccnc3)cc2)o1 [CHEMBL4090822] | 4.33 | Inactive | – | –

Row | Structure (SMILES) | pIC50 Value [1, 3] | Outcome [2, 4] | pIC50 Value [1, 5] | Outcome [2, 6]
43 | COc1ccc(/C=N/NC(N)=S)cc1OCc1cn(CC(=O)c2ccc(C)cc2)nn1 [CHEMBL4173573] | – | – | 5.66 | Active
44 | CC(=O)C1=C(CNc2ccc(C(=O)/C=C/c3ccc(N(C)C)cc3)cc2)N(C)C(=O)NC1c1ccccc1 (centres unmarked) [CHEMBL3787141] | – | – | 5.86 | Active
45 | CCc1nnc(N2C(=O)C3C4C=CC(C4)C3C2=O)s1 (centres unmarked) [CHEMBL1255760] | 4.00 | Inactive | – | –
46 | O=[N+]([O-])c1ccc2ncnc(Nc3cccc(Br)c3)c2c1 [CHEMBL329161] | 5.04 | Active | – | –
47 | N=C(N)c1ccc(OCCCCCOc2ccc(C(=N)N)cc2)cc1 [CHEMBL55] | 4.82 | Inactive | – | –
48 | COc1ccc(/C=C/C(=O)c2ccc(O)cc2)c(OC)c1 [CHEMBL434066] | – | – | 5.40 | Active
49 | CC(=O)C1=C(CNc2ccc(C(=O)/C=C/c3ccc(Cl)cc3)cc2)N(C)C(=O)NC1c1ccccc1 (centres unmarked) [CHEMBL3785674] | – | – | 5.97 | Active
50 | COc1ccc(/N=C/c2cn(C)c3ccccc23)cc1 [CHEMBL2071557] | – | – | 5.46 | Active
51 | COc1cccc2cc(C)cc(O)c12 [CHEMBL2071228] | 4.30 | Inactive | – | –
52 | COc1ccc(-c2nc3ccccn3c2-c2ccccc2)cc1 [CHEMBL2151881] | 4.58 | Inactive | – | –
53 | O=C(CCl)N1c2ccccc2Sc2ccccc21 [CHEMBL1651446] | 5.03 | Active | – | –
54 | O=C(/C=C/c1ccc(-n2ccnc2)cc1)c1ccc(F)cc1 [CHEMBL570258] | – | – | 5.61 | Active
55 | CN(C)CCNc1nccn2c(-c3ccncc3)c(-c3ccc(F)cc3)nc12 [CHEMBL3634366] | 4.45 | Inactive | – | –
56 | CCCCN1CN(CC(=O)O)CSC1=S [CHEMBL4283328] | 4.61 | Inactive | – | –
57 | CCOc1ccc(N2C(=O)C(c3ccc(C)cc3)(c3ccc(C)cc3)C2c2cn(C)c3ccccc23)cc1 (centres unmarked) [CHEMBL2071566] | – | – | 5.90 | Active
58 | C[C@H]1COC2=C1C(=O)C(=O)c1c2ccc2c1[C@H](O)CCC2(C)C [CHEMBL485279] | 4.33 | Inactive | – | –
59 | COc1ccc(-c2nc3ccccn3c2-c2cccc([N+](=O)[O-])c2)cc1 [CHEMBL2151882] | 4.85 | Inactive | – | –
60 | O=C(c1ccccc1)N1CCN(c2nnc(-c3ccc([N+](=O)[O-])s3)s2)CC1 [CHEMBL195362] | 4.60 | Inactive | – | –
61 | COc1cc(C)cc2c1C(=O)C=C(c1c(C)c(OC)c3ccc(O)c(OC)c3c1O)C2=O [CHEMBL2071223] | – | – | 9.82 | Active
